The values below are quoted from earlier work in patent US11396520B2, “Synthesis of the organoarsenical antibiotic arsinothricin and derivatives thereof” (THE FLORIDA INTERNATIONAL UNIVERSITY BOARD OF TRUSTEES, priority 2020, dated 2022).

Structures are written as SMILES.

Series [1] relates to Gram-positive and Gram-negative bacteria. The following applies: stated in words, no test described.
Series [2] deals with carbapenem-resistant Enterobacter cloacae (CRE). The following applies: WHO ESKAPE pathogen CRE; stated in words, no test described.
A further series concerns Mycobacterium bovis BCG. The settings on record: M. bovis BCG; stated in words, no test described.
The next series deals with glutamine synthetase. The following applies: stated in words, no test described.

For the compound `NC(CC[AsH](=O)CO)C(=O)O` (stereo not shown) [AST, 2-amino-4-(hydroxymethylarsinoyl)-butanoic acid], the antibiotic activity entry in series [1] is “effective against both Gram-positive and Gram-negative bacteria”; in series [2], “effective against”; with Mycobacterium bovis BCG, “effective against”. The “inhibition of glutamine synthetase” value in the series on glutamine synthetase is “inhibits glutamine synthetase”.
